{"source": "patent US20190314345A1", "about": "“CALCINEURIN INHIBITOR AND NON-STEROIDAL ANTI-INFLAMMATORY DRUG TO REDUCE RISK OF POST-IMAGING PANCREATITIS” (UNIVERSITY OF PITTSBURGH - OF THE COMMONWEALTH SYSTEM OF …, priority 2016, published 2019)", "key": {"[1]": {"tested_on": "PEP model in mice", "assay": "Intra-ductal RC infusion PEP model in mice: histological severity, serum amylase", "type": "in vivo, mouse", "excerpt": "The procedure for retrograde infusion into the CBD and pancreatic duct has been described before^14. Briefly, Swiss Webster mice were anesthetized with isoflurane. A midline incision was made to reveal the abdominal cavity. The duodenum was flipped to reveal its distal side and held in place by ligatures. […] needle was inserted through the anti-mesenteric aspect of the duodenum to cannulate the CBD. A small bull dog clamp was applied to the distal CBD (near the duodenum) to prevent back flow of the infusate into the duodenal lumen and to hold the cannula in place. A larger bull dog clamp was applied to the proximal CBD (near the liver) to prevent infusion into the liver and thus to direct flow to the pancreatic duct. Total volumes of 50-100 μl of iohexol, iopamidol, or normal saline (NS) were infused at 10-20 μl per min for 5 min using a P33 perfusion pump (Harvard Apparatus, Holliston, Mass.). Upon completion of the infusion, the bull dog clamps were released. The exterior abdominal wound was closed using 7 mm wound clips, and a single injection of buprenorphine (0.075 mg/kg) was given immediately after the surgery. Mice recovered on a heating pad for 30 min after the procedure. They were given free access to food and water after the surgery. The pancreas, duodenum, and spleen were fixed at room temperature for 24 hr in 4% paraformaldehyde. Paraffin-embedded sections were stained with hematoxylin an eosin (HE) and graded using a 20× objective over 10 separate fields in a blinded fashion. Pancreas tissue was graded for edema, inflammatory infiltrate, and necrosis as described by Wildi et al.^67. Whole blood samples were centrifuged at 1500×g for 5 min at 4° C. Serum amylase was measured using a Phadebas kit (Amersham Pharmacia, Rochester N.Y.) as previously described^68."}, "[2]": {"tested_on": "calcineurin", "assay": "NFAT-luciferase activity assay in mouse primary acinar cells", "type": "cell-based", "conditions": "30 min pre-treatment; FK506 24 μM, CsA 16 μM, BAPTA-AM 64 μM", "protocol": "(§1) Acinar cells were infected with Ad-NFAT-luciferase following a previously described procedure^10, 15, 16. The construct includes a luciferase gene placed downstream of an IL-4 promoter which contains nine tandem NFAT binding sites^10. Acinar cells were incubated with the NFAT-driven luciferase adenovirus for 1.5 hr prior to stimulation. All of the stated inhibitors were added for 30 min prior to stimulation with RC. NFAT-luciferase was measured using the luciferase assay system. Briefly, cells were spun at 1,000 rpm for 5 min, washed with PBS, and lysed using reporter lysis 5× buffer (Promega #E397A, Madison, Wis.). Samples were vortexed and spun at 12,000 g for 2 min. Supernatant was plated, and luminescence was measured using a Synergy H1 plate reader (BioTek, Winooski, Vt.) and normalized to total protein."}, "[3]": {"tested_on": "calcineurin", "assay": "NFAT-luciferase activity assay in AR42J cells", "type": "cell-based", "conditions": "pretreatment; FK506 24 μM, CsA 16 μM, U73122 5 μM, 2-APB 100 μM, BAPTA 64 μM", "protocol": "as §1"}, "[4]": {"tested_on": "NF-κB", "assay": "NF-κB-luciferase activity assay in AR42J cells", "type": "cell-based", "conditions": "FK506 24 μM, CsA 16 μM; P<0.05", "protocol": "AR42J cells were differentiated towards an acinar phenotype by administering dexamethasone (100 nM) for 48-72 hr^17. AR42J cells were infected with Ad-NF-κB luciferase 16 h prior to stimulation using a previously described method^12. Following a wash with DMEM/F12 medium, acinar cells were evenly distributed in a 48-well plate and incubated for 30 min at 37° C. They were incubated with RC at varying concentrations and times. NF-κB-luciferase was measured using a commercially available luciferase assay (Promega, Madison, Wis.). Briefly, cells were spun at 1,000 rpm for 5 min, washed with PBS, and lysed using reporter lysis 5× buffer (Promega, catalog no. E397A). Samples were vortexed and spun at 12,000×g for 2 min. The supernatant was plated, and luminescence was measured using a Synergy H1 plate reader (BioTek, Winooski, Vt.) and normalized to […]."}, "[5]": {"tested_on": "primary acinar cells", "assay": "Cell necrosis assay (propidium iodide uptake) in primary acinar cells", "type": "cell-based, mouse", "conditions": "6 hr incubation; U73122 5 μM, 2-APB 100 μM, BAPTA 64 μM, IKK-2 20 μM, FK506 24 μM, CsA 16 μM", "protocol": "(§2) Acinar cells were incubated in a 48-well plate with 50 μg/ml of propidium iodide (PI) for 30 min prior to addition of RC. Fluorescence was measured at 536 nm excitation and 617 nm emission wavelengths over time a time course of up to 6 hr. Fluorescence was measured after cell lysis with 0.5% Triton-X 100 was used to normalize the results relative to total DNA."}, "[6]": {"tested_on": "AR42J cells", "assay": "Cell necrosis assay in AR42J cells", "type": "cell-based", "conditions": "FK506 24 μM, CsA 16 μM", "protocol": "as §2"}, "[7]": {"tested_on": "pancreatic acinar cells", "assay": "ATP level measurements in acinar cells", "type": "cell-based, mouse", "conditions": "RC 12% for 3.5 hr", "protocol": "Following isolation, pancreatic acinar cells were cultured in DMEM/F12 Medium (0.5 ml/well of a 48-well plate) at 37° C. water bath and treated with RC±FK506. Cells were collected at indicated time points and lysed in 100 lysis buffer (100 mM Tris pH 7.75, 4 mM EDTA). ATP levels were measured from 20 μl aliquots of acinar cell lysates using the ENLITEN luciferase/luciferin reagent (Promega catalog no. FF2021)."}, "[8]": {"tested_on": "pancreatic NF-κB", "assay": "Imaging pancreatic NF-κB bioluminescence in vivo", "design": "species or system mouse", "conditions": "FK506 treatment", "protocol": "An AAV6-NF-κB-luciferase reporter was constructed, expanded in HEK293 cells, and purified as previously described^18-20, 39. A volume of 100 μl of virus (10^12 GCP/ml) was infused into the pancreaticobiliary duct at a rate of 10 μl/min using the same technique of RC infusion described above and recently published^21, 39. After a 5-week recovery from the surgery, mice underwent PEP induction with or without FK506 treatment. At varying time points after the surgery, ranging from 2 to 36 hr, bioluminescence signals were obtained by first giving a subcutaneous injection of luciferin (150 μg/g body weight) in the scruff of the neck 15 min before the start of imaging. The mice were briefly anesthetized with isoflurane and placed in the supine position in a bioluminescent imaging chamber (IVIS spectrum imager; Perkin Elmer, Waltham, Mass.) for 3-10 min. Average pixel intensity was measured from a pancreatic region of interest (in the upper abdomen). Raw time points from each mouse were normalized to its individual baseline intensity at time zero."}, "[9]": {"assay": "Dissolution in ready-to-use iohexol formulation", "type": "physicochemical", "conditions": "FK506 1 μM, CsA 10 μM"}}, "data": [{"smiles": "C=CC[C@@H]1/C=C(\\C)C[C@H](C)C[C@H](OC)[C@H]2O[C@@](O)(C(=O)C(=O)N3CCCC[C@H]3C(=O)O[C@H](/C(C)=C/[C@@H]3CC[C@@H](O)[C@H](OC)C3)[C@H](C)[C@@H](O)CC1=O)[C@H](C)C[C@@H]2OC", "note": "[FK506, tacrolimus]", "values": [{"measurement": "effect when given after PEP induction", "setting": "[1]; FK506 1 mg/kg after the infusion of RC", "result": "reduces pancreatic inflammation"}, {"measurement": "serum amylase", "setting": "[1]; FK506 1 mg/kg intraperitoneal 1 hr prior and 2.5, 5.5, 12 hr after RC infusion", "result": "reduced down to the level of the NS sham condition"}, {"measurement": "histological severity of the pancreas following pancreatitis", "setting": "[1]; FK506 1 mg/kg intraperitoneal 1 hr prior and 2.5, 5.5, 12 hr after RC infusion, 24 hr", "result": "prevented"}, {"measurement": "effect of FK506 compared with therapeutic indomethacin on RC-induced pancreatitis", "setting": "[1]; FK506 1 mg/kg, indomethacin 7 mg/kg IP after RC infusion", "result": "as robust"}, {"measurement": "effect on RC-induced rise in NFAT-luciferase", "setting": "[2]", "result": "largely prevented"}, {"measurement": "effect on RC (6%)-induced NFAT-luciferase activity", "setting": "[3]", "result": "prevented"}, {"measurement": "reduction of RC-induced NF-κB", "setting": "[4]", "result": 73, "unit": "%"}, {"measurement": "effect on RC (12%)-induced acinar cell injury (PI uptake)", "setting": "[5]", "result": "prevented"}, {"measurement": "effect on RC (12%)-induced acinar cell necrosis", "setting": "[6]", "result": "prevented"}, {"measurement": "effect on RC-induced ATP depletion", "setting": "[7]", "result": "failed to prevent ATP depletion"}, {"measurement": "effect on RC-induced pancreatic NF-κB", "setting": "[8]", "result": "markedly blunted"}, {"measurement": "dissolution in the ready-to-use iohexol formulation", "setting": "[9]", "result": "easily dissolved"}]}]}
